{
  "source": "patent US20230136297A1",
  "about": "“Methods Of Treating Fabry Disease In Patients Having A Mutation In The GLA Gene” (Amicus Therapeutics, Inc., priority 2020, published 2023)",
  "assay_in_all_cases": "α-Gal A activity in lysates of transfected HEK-293 cells ± migalastat (HEK assay)",
  "assay_type_in_all_cases": "cell-based",
  "key": {"[1]": {"target": "T1, α-Gal A mutant form G360R (Homo sapiens, UniProt P06280, G360R)", "T1 construct": "expressed in transfected cells; host or cells: HEK-293", "T1 sequence (P06280 32-429 G360R)": "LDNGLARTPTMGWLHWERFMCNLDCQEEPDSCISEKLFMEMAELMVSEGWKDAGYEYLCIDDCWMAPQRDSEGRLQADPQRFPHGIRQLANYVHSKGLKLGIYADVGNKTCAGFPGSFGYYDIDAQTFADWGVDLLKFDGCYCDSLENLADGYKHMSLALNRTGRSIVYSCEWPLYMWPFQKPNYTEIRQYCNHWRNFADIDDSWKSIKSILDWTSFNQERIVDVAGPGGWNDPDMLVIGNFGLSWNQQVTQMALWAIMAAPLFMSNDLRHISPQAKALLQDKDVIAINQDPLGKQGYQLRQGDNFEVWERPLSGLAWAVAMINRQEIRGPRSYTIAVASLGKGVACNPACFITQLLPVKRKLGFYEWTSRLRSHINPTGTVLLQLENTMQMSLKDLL", "description": "(§1) Such mutations or variants are also referred to herein as “HEK assay amenable” mutations or variants.\n(§2) The α-Gal A activity is expressed as the nmoles of free 4-MU released per milligram of protein per hour (nmol/mg/hr)."}, "[2]": {"target": "T2, α-Gal A mutant form S276T (Homo sapiens, UniProt P06280, S276T)", "T2 construct": "expressed in transfected cells; host or cells: HEK-293", "T2 sequence (P06280 32-429 S276T)": "T1 sequence (P06280 32-429 G360R) with S245T, R329G", "description": "as §1, §2"}, "α-Gal A mutant form Y88C": {"target": "T3, α-Gal A mutant form Y88C (Homo sapiens, UniProt P06280, Y88C)", "T3 construct": "expressed in transfected cells; host or cells: HEK-293", "T3 sequence (P06280 32-429 Y88C)": "T1 sequence (P06280 32-429 G360R) with Y57C, R329G", "description": "as §1, §2"}, "[3]": {"target": "T4, α-Gal A mutant form D165N (Homo sapiens, UniProt P06280, D165N)", "T4 construct": "expressed in transfected cells; host or cells: HEK-293", "T4 sequence (P06280 32-429 D165N)": "T1 sequence (P06280 32-429 G360R) with D134N, R329G", "description": "as §1, §2"}, "[4]": {"target": "T5, α-Gal A mutant form A291S (Homo sapiens, UniProt P06280, A291S)", "T5 construct": "expressed in transfected cells; host or cells: HEK-293", "T5 sequence (P06280 32-429 A291S)": "T1 sequence (P06280 32-429 G360R) with A260S, R329G", "description": "as §1, §2"}, "[5]": {"details": "10 μM migalastat minus baseline"}, "[6]": {"details": "HEK-293 lysates, 10 μM migalastat 5 days, mean ± SEM"}},
  "note": "Residue numbers refer to the chain shown, from its start.",
  "data": [
    {"compound": "OC[C@H]1NC[C@H](O)[C@@H](O)[C@H]1O", "note": "[migalastat, (2R,3S,4R,5S)-2-(hydroxymethyl) piperdine-3,4,5-triol]", "values": [
      {"measurement": "Absolute increase (% WT)", "setting": "[1]; [5]", "result": 3, "unit": "% WT"},
      {"measurement": "Relative increase", "setting": "[1]; 10 μM migalastat ÷ baseline", "result": 3.65},
      {"measurement": "10 μM migalastat α-Gal A activity", "setting": "[1]; [6]", "result": "1418 ± 93", "unit": "nmol/mg/h"},
      {"measurement": "10 μM migalastat α-Gal A activity (% WT)", "setting": "[1]; [6]", "result": "4.0 ± 0.3", "unit": "% WT"},
      {"measurement": "Absolute increase (% WT)", "setting": "[2]; [5]", "result": 8.3, "unit": "% WT"},
      {"measurement": "Relative increase", "setting": "[2]; 10 μM migalastat ÷ baseline", "result": 7.5},
      {"measurement": "10 μM migalastat α-Gal A activity", "setting": "[2]; [6]", "result": "4104 ± 439", "unit": "nmol/mg/h"},
      {"measurement": "10 μM migalastat α-Gal A activity (% WT)", "setting": "[2]; [6]", "result": "9.6 ± 0.9", "unit": "% WT"},
      {"measurement": "Absolute increase (% WT)", "setting": "α-Gal A mutant form Y88C; [5]", "result": 9.9, "unit": "% WT"},
      {"measurement": "Relative increase", "setting": "α-Gal A mutant form Y88C; 10 μM migalastat ÷ baseline", "result": 3.38},
      {"measurement": "10 μM migalastat α-Gal A activity", "setting": "α-Gal A mutant form Y88C; [6]", "result": "5459 ± 307", "unit": "nmol/mg/h"},
      {"measurement": "10 μM migalastat α-Gal A activity (% WT)", "setting": "α-Gal A mutant form Y88C; [6]", "result": "14 ± 1.1", "unit": "% WT"},
      {"measurement": "Absolute increase (% WT)", "setting": "[3]; [5]", "result": 34, "unit": "% WT"},
      {"measurement": "Relative increase", "setting": "[3]; 10 μM migalastat ÷ baseline", "result": 6.86},
      {"measurement": "10 μM migalastat α-Gal A activity", "setting": "[3]; [6]", "result": "10562 ± 1017", "unit": "nmol/mg/h"},
      {"measurement": "10 μM migalastat α-Gal A activity (% WT)", "setting": "[3]; [6]", "result": "40 ± 2.7", "unit": "% WT"},
      {"measurement": "Absolute increase (% WT)", "setting": "[4]; [5]", "result": 26.8, "unit": "% WT"},
      {"measurement": "Relative increase", "setting": "[4]; 10 μM migalastat ÷ baseline", "result": 1.55},
      {"measurement": "10 μM migalastat α-Gal A activity", "setting": "[4]; [6]", "result": "20029 ± 1654", "unit": "nmol/mg/h"},
      {"measurement": "10 μM migalastat α-Gal A activity (% WT)", "setting": "[4]; [6]", "result": "74.5 ± 4^ % WT"}
    ]}
  ]
}
